In publication PMC11358582, “Discovery of a potential bladder cancer inhibitor CHNQD-01281 by regulating EGFR and promoting infiltration of cytotoxic T cells” (Marine Life Science & Technology, 2024):

Columns and labels:
T24 cell line [1] = test: Cell cycle analysis (Muse Cell Analyzer); type: cell-based, human
Experimental: (§1) T24 and J82 cell lines were seeded in 6-well plates (3 × 10^5 cells/well) and treated with different concentrations of CHNQD-01281 or DMSO. Cells were then harvested, washed with ice-cold PBS, and fixed in 70% cold ethanol overnight at − 20 °C. Fixed cells were then collected, washed, and stained with 200 μL of Muse™ cell cycle reagent for 30 min in the dark at room temperature. The cell cycle distribution was immediately analyzed by Muse Cell Analyzer (Millipore, Billerica, MA, USA).
(§2) The G1/S transition is a key checkpoint in the cell cycle that regulates DNA replication. As the cell cycle progresses, G1 phase arrest leads to apoptosis or repair mechanisms.

J82 cell line [2] = test: Cell cycle analysis (Muse Cell Analyzer); type: cell-based, human
Experimental: as §1, §2

T24 xenograft = test: T24 nude mice xenograft model; type: in vivo, BALB/c-nu mice; details: for reduction of Ki67 expression level (IHC): tumor tissue
Experimental: Specific pathogen free (SPF)-grade C57BL/6 mice and BALB/c-nu mice were purchased from Jinan Pengyue Experimental Animal Center (license No. SCXK 20190003). The protocol was approved by the Research Review Committee of the Ocean University of China. All mice were housed in 12-h light and 12-h dark conditions in which the humidity was 50% ± 10% and the temperature was 22 ± 2 °C. All mice had free access to food and water. The human bladder cancer cell line T24 was injected subcutaneously into BALB/c-nu mice to construct a xenograft tumor model. The cell suspension of mouse bladder cancer cell line MB49 was injected into C57BL/6 mice subcutaneously to construct a syngeneic tumor model.
Fixed tissues were embedded in paraffin and then sectioned. The specimens were incubated with antibodies against Ki67, CD3, CD4, CD8 (Servicebio, China) and EGFR (ABclonal, China) at 4 °C overnight. The next day, the slides were washed with 1 × PBST three times for 5 min each and stained with the secondary antibodies and Hoechst 33342 dye (Beyotime, China) for 60 min for IF. For IHC staining, the sections were developed with a rabbit/mouse HRP kits (DAB) (Beyotime, China) according to the manufacturer’s instructions.
Therefore, xenograft and homologous tumor models were constructed to further evaluate the antitumor effect of CHNQD-01281 in vivo. The mouse bladder cancer xenograft model was established by the subcutaneous inoculation of the T24 cell line, then CHNQD-01281 was intraperitoneally administrated for two consecutive weeks (Fig. 5A).

T24 cell line [3] = test: Colony formation assay; type: cell-based; details: Homo sapiens, T-24, 288 h, 12 days, read-out: inhibition rate on colony formation
Experimental: (§3) T24 and J82 cell lines were seeded in 6-well plates at 500 cells/well. The cells were cultured overnight in medium. Compound CHNQD-01281 was added according to the concentration gradient, and the cells were placed in a 37 °C cell incubator containing 5% CO2 for 12 days. The cells were then fixed with 4% paraformaldehyde for 15 min and stained with crystal violet for 30 min. After that, pictures were taken and colony numbers were counted. The clone formation rate relative to the solvent control group was calculated.
(§4) Cell proliferation ability was also detected by colony formation assay (Kabakov et al. [2018]), and the results are shown in Fig. 3A−B. CHNQD-01281 was applied for 12 days to detect long-term proliferation inhibition of T24 and J82 cell lines.

J82 cell line [4] = test: Colony formation assay; type: cell-based; details: Homo sapiens, 288 h, 12 days, read-out: inhibition rate on colony formation
Experimental: as §3, §4

EGFR = test: Western blot of EGFR expression in T24 cells; type: cell-based, human; details: T24, 0.16 µmol/L, versus control
Experimental: T24 and J82 cell lines were lysed in protein lysis buffer, which included phosphatase inhibitors and a cocktail of protease inhibitors. A BCA kit (SparkJade, China) was used to determine the total protein concentration. After protein denaturation, SDS-PAGE electrophoresis was performed and the protein transferred from the gel to a PVDF membrane (Millipore, USA). Then primary antibodies against cleaved caspases-3, cleaved PARP, AKT, phosphorylated AKT, ERK1/2, phosphorylated ERK1/2, EGFR, mTOR, phosphorylated mTOR and Tubulin (CST, USA) were diluted at 1:1000 at 4 °C overnight. The membranes were then washed and incubated with secondary antibodies dissolved in 5% nonfat milk. A chemiluminescence imaging system was used to detect the signals (Tanon, China).
EGFR is overexpressed in malignant urothelial cells, which is associated with the deterioration, invasiveness and metastasis of tumors. It is a potential therapeutic target for bladder carcinoma. Therefore, we examined the expression of EGFR and its downstream proteins after treating bladder cancer cells with CHNQD-01281 (Supplementary Fig. S11). […] Taken together, CHNQD-01281 inhibited the proliferation of bladder cancer cells and induced apoptosis through EGFR/PI3K/AKT and EGFR/ERK pathways to exert antitumor effects.

[5] = Tissue distribution in tumor and main organs; type: in vivo, C57BL/6 mice; details: tumor, heart, duodenum and spleen
Experimental: (§5) To further investigate the safety profile of CHNQD-01281 in vivo, the HE staining of the heart, liver, spleen, lung, kidney and duodenum of C57 mice were analyzed after the single dose of CHNQD-01281 (100 mg/kg, i.p.). […] The distribution of CHNQD-01281 in tumor and main organs of C57BL/6 mice was then analyzed.
(§6) Fig. S14. Safety profile and tissue distribution of CHNQD-01281 in vivo. A Representative H&E staining images (scale bar: 50 μm) of main organs from vehicle and CHNQD-01281 (100 mg/kg, ip.) treated C57BL/6 mice (n = 3). B Bodyweight evaluation of mouse after treatment with vehicle and CHNQD-01281. C Tissue distribution of CHNQD-01281 in C57BL/6 mice (n = 3).

[6] = Single-dose safety profile, HE staining of main organs; type: in vivo, C57BL/6 mice; details: single dose 100 mg/kg, i.p.
Experimental: as §5, §6

## C[C@H]1CCC/C=C/[C@@H]2C[C@H](O)C[C@H]2[C@H](OC(=O)/C=C/c2cccnc2)/C=C/C(=O)O1 [CHNQD-01281, Brefeldin A 4-O-3-(pyridin-3-yl) acrylate]
T24 cell line [1]; T24, 0.04 µmol/L (control 20.5%)
  proportion of cells in S phase: 18.9%
T24 cell line [1]; T24, 0.04 µmol/L (control 61.4%)
  G0/G1 cells: 65.0%
T24 cell line [1]; T24, 0.08 µmol/L (control 20.5%)
  proportion of cells in S phase: 13.5%
T24 cell line [1]; T24, 0.08 µmol/L (control 61.4%)
  G0/G1 cells: 75.2%
T24 cell line [1]; T24, 0.16 µmol/L (control 20.5%)
  proportion of cells in S phase: 11.4%
T24 cell line [1]; T24, 0.16 µmol/L (control 61.4%)
  G0/G1 cells: 80.6%
J82 cell line [2]; J82, 0.04 µmol/L (control 27.5%)
  proportion of cells in S phase: 26.0%
J82 cell line [2]; J82, 0.04 µmol/L (control 53.1%)
  G0/G1 cells: 60.3%
J82 cell line [2]; J82, 0.08 µmol/L (control 27.5%)
  proportion of cells in S phase: 22.1%
J82 cell line [2]; J82, 0.08 µmol/L (control 53.1%)
  G0/G1 cells: 66.3%
J82 cell line [2]; J82, 0.16 µmol/L (control 27.5%)
  proportion of cells in S phase: 18.2%
J82 cell line [2]; J82, 0.16 µmol/L (control 53.1%)
  G0/G1 cells: 73.6%
T24 xenograft; 15 mg/kg, versus control
  reduction of Ki67 expression level (IHC): 38.32%
T24 xenograft; 30 mg/kg
  expression of EGFR in tumor (IHC): significantly down-regulated expression of EGFR
T24 xenograft; 30 mg/kg, i.p., QD, two weeks, tumor volume
  tumor growth inhibition rate (TGI %): 52.63%
T24 xenograft; 30 mg/kg, versus control
  reduction of Ki67 expression level (IHC): 66.47%
  reduction of tumor weight: 48.57%
T24 cell line [3]; T24, 0.04 µmol/L
  inhibition at 0.04 µM: 17%
T24 cell line [3]; T24, 0.08 µmol/L
  inhibition at 0.08 µM: 52.5%
T24 cell line [3]; T24, 0.16 µmol/L
  inhibition at 0.16 µM: 95.5%
J82 cell line [4]; J82, 0.04 µmol/L
  inhibition at 0.04 µM: 25.1%
J82 cell line [4]; J82, 0.08 µmol/L
  inhibition at 0.08 µM: 58.3%
J82 cell line [4]; J82, 0.16 µmol/L
  inhibition at 0.16 µM: 85.9%
EGFR
  maximum down-regulation of EGFR expression: 77.61%
[5]
  time of rapid concentration elimination: ≤ 1 h
[6]
  HE staining of heart, liver, spleen, lung, kidney and duodenum: no obvious abnormalities in cell and tissue morphology
